≈ marks a conversion by molar mass, not a printed value.

The test system of one data set is human tumor cell lines. Briefly: MTT assays, cell line not given. The conditions noted are these: cell line not stated; for relative cytotoxic / biological activity: MTT; for IC50: Homo sapiens. It is filed as cell-based. How it is done:
(§1) The cytotoxicity assay of various CL2 compounds against human tumor cell lines was performed using the MTT (3-[4,5-dimethylthiazol-2-yl]-2,5-diphenyl tetrazolium bromide) assay (Boehringer Mannheim Corp., Indianapolis, Ind.). Briefly, exponentially growing tumor cells were seeded into a 96-well plate at a density of 2.5×10^4 cells/well and incubated for 36 hours at 37° C. prior to compound exposure. On the day of treatment, culture medium was carefully aspirated from the wells and replaced with fresh medium containing the CL2 compounds at concentrations ranging from 0.0 to 100 μM. Triplicate wells were used for each treatment.
(§2) Human cell lines were obtained from American Type Culture Collection (Rockville, Md.) and maintained as a continuous cell line in Dulbecco's modified Eagles' medium supplemented with 10% fetal bovine serum and antibiotics. Cells used in this study include human leukemia cells (NALM-6 and MOLT-3).
(§3) The cells were incubated with the various compounds for 24-36 hours at 37° C. in a humidified 5% CO2 atmosphere. To each well, 10 μl of MTT (0.5 mg/ml final concentration) was added and the plates were incubated at 37° C. for 4 hours to allow MTT to form formazan crystals by reacting with metabolically active cells. The formazan crystals were solubilized overnight at 37° C. in a solution containing 10% SDS in 0.01 M HCl. The absorbance of each well was measured in a microplate reader (Labsystems) at 540 nm and a reference wavelength of 690 nm. To translate the OD540 values into the number of live cells in each well, the OD540 values were compared to those on standard OD540-versus-cell number curves generated for each cell line. The percent survival was calculated using the formula:
(§4) % Survival=live cell number [test]/live cell number [control]×100
(§5) The IC50 values were calculated by non-linear regression analysis.
For orientation: Tetrazolium dyes change colour on reduction, which living cells bring about.

For data set [1], the system named is NALM-6 human leukemia cells. Briefly: MTT cytotoxicity assay, NALM-6. It is filed as cell-based. The conditions noted are these: for ED50 Nalm6: Table 4, individual lead compounds; for relative cytotoxic activity: ranking among the 21 individual compounds, Nalm6, MTT. As to the method:
Stage (4): deconvolution and re-synthesis were guided by an iterative screening procedure during which the cytotoxic anti-cancer activities of the individual sub-libraries were measured against the human leukemia cell lines NALM-6 and MOLT-3 using MTT assays. […] However, this is not always true when even-splitting was not possible or some special consideration. […] Another special example is the small 10-member sublibrary CL2.
as §1, §2, §3, §4, §5

Data set [2] in a line: compound stability remark in Table 1. The format is physicochemical.

As to `COc1ccccc1CCNC(=S)NCCc1ccc(Cl)cc1Cl` [CL12b], the “relative cytotoxic / biological activity” value in the data set with human tumor cell lines is “most active”. On the same count and under the same terms, to `COc1ccc(OC)c(CCNC(=S)NCCc2ccccc2OC)c1` [CL12a] belongs “most active”. Turning to `CC(NC(=S)NC(C)c1ccccc1)c1ccccc1` (stereo not drawn) [Compound L34A2A2], in data set [1], the “ED50 Nalm6” value was 50 µg/mL (≈ 176 µM).

With `CC(NC(=S)NC(c1ccccc1)c1ccccc1)c1ccccc1` (stereo not drawn) [Compound L34A2A3], in data set [1], the “ED50 Nalm6” value is 50 µg/mL (≈ 144 µM). For the molecule `Fc1ccc(CCNC(=S)NCCc2ccc(F)cc2)cc1` [CL2j], the “stability (remark in place of IC50)” value in data set [2] is recorded as “unstable compound”.

Consider `CC(NC(=S)NC(c1ccccc1)(c1ccccc1)c1ccccc1)c1ccccc1` (stereo not drawn) [Compound L34A2A4], for which the “ED50 Nalm6” value in data set [1] came out at 50 µg/mL (≈ 118 µM). Still for that read-out and setting: the value for `S=C(NC(c1ccccc1)c1ccccc1)NC(c1ccccc1)c1ccccc1` [Compound L34A3A3] was above 100 µg/mL. By IC50 is commonly meant the point on the concentration scale where inhibition reaches its midpoint. For the molecule `S=C(NC(Cc1ccccc1)c1ccccc1)NC(Cc1ccccc1)c1ccccc1` (stereo not drawn) [Compound L34A5A5, 1,3-Bis(1,2-diphenylethyl)-2-thiourea], in data set [1], the “ED50 Nalm6” value was below 10 µg/mL and the “relative cytotoxic activity” value was “most active”. The same molecule yielded a 50% inhibitory concentration (IC50) with human tumor cell lines below 10 µg/mL. For `S=C(NC(Cc1ccccc1)c1ccccc1)NC(c1ccccc1)c1ccccc1` (stereo not drawn) [Compound L34A3A5, 1-(1,2-Diphenylethyl)-3-(diphenylmethyl)-2-thiourea], in that order: below 10 µg/mL, “most active” and below 10 µg/mL. On to `Fc1ccc(CCNC(=S)NCCc2ccc(Cl)cc2Cl)cc1` [CL10b], for which the “relative cytotoxic / biological activity” value in the data set with human tumor cell lines is reported as “most active”. Turning to `S=C(NC(c1ccccc1)(c1ccccc1)c1ccccc1)NC(c1ccccc1)(c1ccccc1)c1ccccc1` [Compound L34A4A4], the “ED50 Nalm6” value in data set [1] came out at 30 µg/mL (≈ 53.5 µM).

The record behind these values is patent publication US20020103380A1, “Thiourea and urea liquid-phase combinatorial libraries: synthesis and apoptosis induction” (Parker Hughes Institute, priority 1999, published 2002).
